{
  "source": "patent US4430502A",
  "about": "“Pyridinyl substituted benzimidazoles and quinoxalines” (The Upjohn Company, priority 1982, dated 1984)",
  "target": "T1, TXA2 synthetase (Homo sapiens, UniProt P24557)",
  "T1 construct": "human platelet microsomes (HPM); from tissue; host or cells: human platelet microsomes",
  "T1 sequence (P24557 1-533)": "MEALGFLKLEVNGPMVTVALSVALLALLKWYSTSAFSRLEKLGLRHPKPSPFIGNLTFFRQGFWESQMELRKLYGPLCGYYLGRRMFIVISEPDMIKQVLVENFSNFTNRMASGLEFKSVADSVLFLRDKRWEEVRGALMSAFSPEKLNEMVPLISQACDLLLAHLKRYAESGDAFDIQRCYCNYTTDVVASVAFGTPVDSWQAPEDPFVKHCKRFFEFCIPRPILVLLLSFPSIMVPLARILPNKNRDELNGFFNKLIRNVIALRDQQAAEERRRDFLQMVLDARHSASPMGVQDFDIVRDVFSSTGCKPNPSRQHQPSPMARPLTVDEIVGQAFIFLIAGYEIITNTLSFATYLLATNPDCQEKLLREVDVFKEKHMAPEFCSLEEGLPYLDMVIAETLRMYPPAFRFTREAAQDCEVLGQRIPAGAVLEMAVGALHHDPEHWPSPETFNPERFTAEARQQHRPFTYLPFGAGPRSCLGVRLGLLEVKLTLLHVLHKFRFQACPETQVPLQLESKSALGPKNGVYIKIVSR",
  "test": "TXA2 inhibition test: TXA2 generated from PGH2 with human platelet microsomes, response of superfused rabbit aortic strips",
  "assay_type": "biochemical",
  "description": "The compounds of the present invention were tested for TXA2 inhibition as follows:\nRabbit aortic strips were superfused in series with Krebs solution. Thromboxane A2 (TXA2) was generated by mixing prostaglandin H2 (PGH2) with human platelet microsomes (HPM).\nPotential inhibitors were tested by comparing the response of the rabbit aorta to the amount of TXA2 produced by mixing PGH2 and HPM without the test compound in the reaction medium and then the amount of TXA2 produced when the test compound was added to the HPM 5 minutes before the HPM was mixed with PGH2. […] For a discussion of TXA2 synthetase inhibition testing see, e.g., R. Gorman, supra.",
  "data": [
    {"compound": "c1cncc(Cc2ccc3nc[nH]c3c2)c1", "note": "[Example 3, 5-(3-Pyridinylmethyl)benzimidazole]", "values": [
      {"measurement": "effectiveness in inhibiting TXA2 formation", "setting": "compared with the other compounds tested in this test system", "result": "most effective"},
      {"measurement": "IC50", "setting": "test compound added to human platelet microsomes 5 minutes before mixing with PGH2, rabbit aorta response, read-out: approximate ED50 for inhibiting TXA2 formation (converted)", "result": "~478", "unit": "nM"}
    ]}
  ]
}
